Data: PubChem BioAssay (NCI)
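Assay format: 96-well plates, 48-hour exposure. TGI: concentration producing complete growth inhibition.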

Tested on: SF-268 CNS
Experiment: growth of human tumour cells (NCI), 48 h

| SMILES | TGI [µM] |
| --- | --- |
| COc1cc([C@@H]2c3cc4c(cc3[C@@H](Nc3ccc(Cl)cc3C(=O)c3ccccc3)[C@H]3COC(=O)[C@H]23)OCO4)cc(OC)c1OC | > 100 |
| Cc1cc(O)c(/C=N/C(=S)Nc2ccc(S(N)(=O)=O)cc2)c(=O)o1 | > 100 |
| Cc1nn(C(=O)c2ccncc2)c2c1C(c1ccccc1[N+](=O)[O-])SC(N)=N2 (centres undefined) | > 10 |
| Cn1nnc2c3c(N(CCO)CCO)ccnc3ccc21 | > 100 |
| CC(Oc1ccccc1Cl)C(=O)NN1C(=O)CC(=O)N(c2ccc(Cl)cc2)C1=S (centres undefined) | > 100 |
| Cc1ccc(S(=O)(=O)N2CCSCCSCCSCCN(S(=O)(=O)c3ccc(C)cc3)CC2)cc1 | > 100 |
| CC(Oc1ccc(Cl)cc1Cl)C(=O)NN1C(=O)CC(=O)N(c2ccccc2)C1=S (centres undefined) | > 100 |
| CC(=O)/C(=C\I)c1ccccc1 | 36.5 |
| CCOC(=O)c1c[nH]c(C(=O)C=[N+]=[N-])c1C1CCN(CC)C1=S (centres undefined) | > 100 |
| CC(=O)N1C(Nc2nccs2)CCN1c1ccccc1 (centres undefined) | > 10 |
| O=c1[nH][nH]c(=O)c2c1ccc1oc3ccccc3c12 | > 100 |
| O=C1CSC(c2ccccc2O)N1c1ccc(-n2c(-c3ccccc3)nc3ccccc3c2=O)cc1 (centres undefined) | > 100 |
| O=C1NC2(CCNCC2)Oc2ccccc21 | > 100 |
| CC(C)OP(=O)(OC(C)C)C(C)(C)O | > 100 |

Tested on: SF-295 CNS
Experiment: growth of human tumour cells (NCI), 48 h

| SMILES | TGI [µM] |
| --- | --- |
| CCCCCCCCCCCCCCCCNC(=O)/C(=C\c1ccc(Cl)c(Cl)c1)NC(=O)c1ccccc1 | > 100 |
| O=C(Nc1ccccc1)OCCN=C1c2ccccc2CCc2ccccc21 | 34.1 |
| CC(C)[C@H]1NC(=O)[C@H]2N=C(S[C@H]2C)[C@@H]2CCCN2C(=O)[C@H](Cc2ccccc2)NC(=O)[C@@H]2CSC(=N2)[C@@H](Cc2ccccc2)NC(=O)[C@@H]2CSC1=N2 | > 50 |
| O=C(Cn1c2ccc(Br)cc2c2nc3ccccc3nc21)Nc1ccccc1 | > 100 |
| COC(=O)/C=C/[C@@H]1[C@H](C)N1S(=O)(=O)c1ccc(C)cc1 (some centres undefined) | > 100 |
| Cc1cc(O)c(/C=N/C(=S)Nc2ccc(S(N)(=O)=O)cc2)c(=O)o1 | > 100 |
| Cc1nn(C(=O)c2ccncc2)c2c1C(c1ccccc1[N+](=O)[O-])SC(N)=N2 (centres undefined) | > 10 |
| Cn1nnc2c3c(N(CCO)CCO)ccnc3ccc21 | > 100 |
| CC(Oc1ccccc1Cl)C(=O)NN1C(=O)CC(=O)N(c2ccc(Cl)cc2)C1=S (centres undefined) | > 100 |
| Cc1ccc(S(=O)(=O)N2CCSCCSCCSCCN(S(=O)(=O)c3ccc(C)cc3)CC2)cc1 | > 100 |
| CC(Oc1ccc(Cl)cc1Cl)C(=O)NN1C(=O)CC(=O)N(c2ccccc2)C1=S (centres undefined) | > 100 |
| CC(=O)/C(=C\I)c1ccccc1 | 33.7 |
| CCOC(=O)c1c[nH]c(C(=O)C=[N+]=[N-])c1C1CCN(CC)C1=S (centres undefined) | > 100 |
| CC(=O)N1C(Nc2nccs2)CCN1c1ccccc1 (centres undefined) | > 10 |
| O=c1[nH][nH]c(=O)c2c1ccc1oc3ccccc3c12 | > 100 |
| O=C1CSC(c2ccccc2O)N1c1ccc(-n2c(-c3ccccc3)nc3ccccc3c2=O)cc1 (centres undefined) | 50.5 |
| O=C1NC2(CCNCC2)Oc2ccccc21 | > 100 |
| CC(C)OP(=O)(OC(C)C)C(C)(C)O | > 100 |
| COc1cc(C2c3cc4c(cc3C(=O)C3CCC(=O)N32)OCO4)cc(OC)c1O (centres undefined) | > 50 |

Tested on: SF-539 CNS
Experiment: growth of human tumour cells (NCI), 48 h

| SMILES | TGI [µM] |
| --- | --- |
| CCCCCCCCCCCCCCCCNC(=O)/C(=C\c1ccc(Cl)c(Cl)c1)NC(=O)c1ccccc1 | 30.8 |
| O=C(Nc1ccccc1)OCCN=C1c2ccccc2CCc2ccccc21 | 34.8 |
| CC(C)[C@H]1NC(=O)[C@H]2N=C(S[C@H]2C)[C@@H]2CCCN2C(=O)[C@H](Cc2ccccc2)NC(=O)[C@@H]2CSC(=N2)[C@@H](Cc2ccccc2)NC(=O)[C@@H]2CSC1=N2 | > 50 |
| COC(=O)/C=C/[C@@H]1[C@H](C)N1S(=O)(=O)c1ccc(C)cc1 (some centres undefined) | > 100 |
| COc1cc([C@@H]2c3cc4c(cc3[C@@H](Nc3ccc(Cl)cc3C(=O)c3ccccc3)[C@H]3COC(=O)[C@H]23)OCO4)cc(OC)c1OC | 0.669 |
| Cc1cc(O)c(/C=N/C(=S)Nc2ccc(S(N)(=O)=O)cc2)c(=O)o1 | > 100 |
| Cc1nn(C(=O)c2ccncc2)c2c1C(c1ccccc1[N+](=O)[O-])SC(N)=N2 (centres undefined) | > 10 |
| Cn1nnc2c3c(N(CCO)CCO)ccnc3ccc21 | > 100 |
| CC(Oc1ccccc1Cl)C(=O)NN1C(=O)CC(=O)N(c2ccc(Cl)cc2)C1=S (centres undefined) | > 100 |
| Cc1ccc(S(=O)(=O)N2CCSCCSCCSCCN(S(=O)(=O)c3ccc(C)cc3)CC2)cc1 | > 100 |
| CC(Oc1ccc(Cl)cc1Cl)C(=O)NN1C(=O)CC(=O)N(c2ccccc2)C1=S (centres undefined) | > 100 |
| CC(=O)/C(=C\I)c1ccccc1 | 34.2 |
| CC(=O)N1C(Nc2nccs2)CCN1c1ccccc1 (centres undefined) | > 10 |
| O=c1[nH][nH]c(=O)c2c1ccc1oc3ccccc3c12 | > 100 |
| O=C1CSC(c2ccccc2O)N1c1ccc(-n2c(-c3ccccc3)nc3ccccc3c2=O)cc1 (centres undefined) | 58.9 |
| O=C1NC2(CCNCC2)Oc2ccccc21 | > 100 |
| CC(C)OP(=O)(OC(C)C)C(C)(C)O | > 100 |
| COc1cc(C2c3cc4c(cc3C(=O)C3CCC(=O)N32)OCO4)cc(OC)c1O (centres undefined) | > 50 |

Tested on: SK-MEL-2 melanoma
Experiment: growth of human tumour cells (NCI), 48 h

| SMILES | TGI [µM] |
| --- | --- |
| CCCCCCCCCCCCCCCCNC(=O)/C(=C\c1ccc(Cl)c(Cl)c1)NC(=O)c1ccccc1 | > 100 |
| O=C(Nc1ccccc1)OCCN=C1c2ccccc2CCc2ccccc21 | 30.3 |
| CC(C)[C@H]1NC(=O)[C@H]2N=C(S[C@H]2C)[C@@H]2CCCN2C(=O)[C@H](Cc2ccccc2)NC(=O)[C@@H]2CSC(=N2)[C@@H](Cc2ccccc2)NC(=O)[C@@H]2CSC1=N2 | > 50 |
| O=C(Cn1c2ccc(Br)cc2c2nc3ccccc3nc21)Nc1ccccc1 | > 100 |
| COC(=O)/C=C/[C@@H]1[C@H](C)N1S(=O)(=O)c1ccc(C)cc1 (some centres undefined) | > 100 |
| COc1cc([C@@H]2c3cc4c(cc3[C@@H](Nc3ccc(Cl)cc3C(=O)c3ccccc3)[C@H]3COC(=O)[C@H]23)OCO4)cc(OC)c1OC | > 100 |
| Cc1cc(O)c(/C=N/C(=S)Nc2ccc(S(N)(=O)=O)cc2)c(=O)o1 | > 100 |
| Cc1nn(C(=O)c2ccncc2)c2c1C(c1ccccc1[N+](=O)[O-])SC(N)=N2 (centres undefined) | > 10 |
| Cn1nnc2c3c(N(CCO)CCO)ccnc3ccc21 | > 100 |
| CC(Oc1ccccc1Cl)C(=O)NN1C(=O)CC(=O)N(c2ccc(Cl)cc2)C1=S (centres undefined) | 98.2 |
| Cc1ccc(S(=O)(=O)N2CCSCCSCCSCCN(S(=O)(=O)c3ccc(C)cc3)CC2)cc1 | > 100 |
| CC(Oc1ccc(Cl)cc1Cl)C(=O)NN1C(=O)CC(=O)N(c2ccccc2)C1=S (centres undefined) | > 100 |
| CC(=O)/C(=C\I)c1ccccc1 | 4.75 |
| CCOC(=O)c1c[nH]c(C(=O)C=[N+]=[N-])c1C1CCN(CC)C1=S (centres undefined) | > 100 |
| CC(=O)N1C(Nc2nccs2)CCN1c1ccccc1 (centres undefined) | > 10 |
| O=c1[nH][nH]c(=O)c2c1ccc1oc3ccccc3c12 | > 100 |
| O=C1CSC(c2ccccc2O)N1c1ccc(-n2c(-c3ccccc3)nc3ccccc3c2=O)cc1 (centres undefined) | 59.1 |
| O=C1NC2(CCNCC2)Oc2ccccc21 | > 100 |
| CC(C)OP(=O)(OC(C)C)C(C)(C)O | > 100 |
| COc1cc(C2c3cc4c(cc3C(=O)C3CCC(=O)N32)OCO4)cc(OC)c1O (centres undefined) | > 50 |

Tested on: SK-MEL-5 melanoma
Experiment: growth of human tumour cells (NCI), 48 h

| SMILES | TGI [µM] |
| --- | --- |
| CCCCCCCCCCCCCCCCNC(=O)/C(=C\c1ccc(Cl)c(Cl)c1)NC(=O)c1ccccc1 | > 100 |
| O=C(Nc1ccccc1)OCCN=C1c2ccccc2CCc2ccccc21 | 27.3 |
| CC(C)[C@H]1NC(=O)[C@H]2N=C(S[C@H]2C)[C@@H]2CCCN2C(=O)[C@H](Cc2ccccc2)NC(=O)[C@@H]2CSC(=N2)[C@@H](Cc2ccccc2)NC(=O)[C@@H]2CSC1=N2 | > 50 |
| O=C(Cn1c2ccc(Br)cc2c2nc3ccccc3nc21)Nc1ccccc1 | > 100 |
| COC(=O)/C=C/[C@@H]1[C@H](C)N1S(=O)(=O)c1ccc(C)cc1 (some centres undefined) | > 100 |
| COc1cc([C@@H]2c3cc4c(cc3[C@@H](Nc3ccc(Cl)cc3C(=O)c3ccccc3)[C@H]3COC(=O)[C@H]23)OCO4)cc(OC)c1OC | 16 |
| Cc1cc(O)c(/C=N/C(=S)Nc2ccc(S(N)(=O)=O)cc2)c(=O)o1 | > 100 |
| Cc1nn(C(=O)c2ccncc2)c2c1C(c1ccccc1[N+](=O)[O-])SC(N)=N2 (centres undefined) | > 10 |
| Cn1nnc2c3c(N(CCO)CCO)ccnc3ccc21 | > 100 |
| CC(Oc1ccccc1Cl)C(=O)NN1C(=O)CC(=O)N(c2ccc(Cl)cc2)C1=S (centres undefined) | > 100 |
| Cc1ccc(S(=O)(=O)N2CCSCCSCCSCCN(S(=O)(=O)c3ccc(C)cc3)CC2)cc1 | > 100 |
| CC(Oc1ccc(Cl)cc1Cl)C(=O)NN1C(=O)CC(=O)N(c2ccccc2)C1=S (centres undefined) | > 100 |
| CCOC(=O)c1c[nH]c(C(=O)C=[N+]=[N-])c1C1CCN(CC)C1=S (centres undefined) | > 100 |
| CC(=O)N1C(Nc2nccs2)CCN1c1ccccc1 (centres undefined) | > 10 |
| O=c1[nH][nH]c(=O)c2c1ccc1oc3ccccc3c12 | > 100 |
| O=C1CSC(c2ccccc2O)N1c1ccc(-n2c(-c3ccccc3)nc3ccccc3c2=O)cc1 (centres undefined) | 35.9 |
| O=C1NC2(CCNCC2)Oc2ccccc21 | > 100 |
| CC(C)OP(=O)(OC(C)C)C(C)(C)O | > 100 |
